We go through three compounds from PubChem BioAssay (NCI).

Where “and” joins values, the source holds several entries; their conditions need not be identical. Equal entries are not always repeated.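 Following 48 hours of exposure in 96-well plates, responses at five concentrations were used to interpolate endpoints linearly. GI50 marks 50% less growth. TGI: total growth inhibition.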 Where only a bound is given, the exact number is not on record here.

Some test systems named below: BT-549 breast; DLD-1 colon; DMS 114 small cell lung; HL-60(TB) leukemia; HOP-62 NSCLC; HT29 colon; M14 melanoma; MOLT-4 leukemia; OVCAR-8 ovarian; UACC-257 melanoma.
What all share (test): inhibition of tumour cell growth, NCI panel, 48 h

Consider `C/C(=N\N=C(/[Se])N1CC2CCC(CC2)C1)c1ccccn1`, for which the TGI in the experiment with BT-549 breast was 1.63 µM; with DLD-1 colon it was 1.96 µM; in the experiment on DMS 114 small cell lung, < 0.0229 µM; in the experiment with HL-60(TB) leukemia, 0.489 µM; in the experiment with HOP-62 NSCLC, 1.92 µM; in the experiment with HT29 colon, 2.6 µM. Also, the TGI came out at 0.701 µM in the experiment with M14 melanoma, 1.16 µM with MOLT-4 leukemia, 2.34 µM in the experiment on OVCAR-8 ovarian and 0.569 µM in the experiment with UACC-257 melanoma.
For `O=C1c2c(nc3ccccc3c2-c2ccccc2)CN1Nc1ccccn1`, the TGI was > 100 µM in the experiment with BT-549 breast; > 100 µM in the experiment on DLD-1 colon; > 76.1 µM in the experiment with DMS 114 small cell lung; > 100 µM with HL-60(TB) leukemia; > 100 µM in the experiment on HOP-62 NSCLC; > 100 µM in the experiment with HT29 colon. Moreover, the TGI in the experiment on M14 melanoma is > 100 µM; in the experiment with MOLT-4 leukemia, > 100 µM; in the experiment with OVCAR-8 ovarian, > 87.1 µM; with UACC-257 melanoma, > 100 µM.
For the compound `COc1cc2c[n+](C)c3c4ccccc4ccc3c2cc1OC` (tested in a mixture with another compound), the GI50 was 11 µM in the experiment with BT-549 breast; 4.56 µM in the experiment with HL-60(TB) leukemia; 6.41 µM in the experiment with HOP-62 NSCLC; 3.94 µM in the experiment on HT29 colon; 8.31 µM in the experiment with M14 melanoma; 0.514 µM in the experiment on MOLT-4 leukemia. Further, the GI50 in the experiment with OVCAR-8 ovarian is 3.57 µM; with UACC-257 melanoma, 2.11 µM. Further, the TGI with BT-549 breast was 24.6 µM; in the experiment with DLD-1 colon, > 100 µM; in the experiment with DMS 114 small cell lung, 14.6 µM; in the experiment on HL-60(TB) leukemia, > 84.2 µM; with HOP-62 NSCLC, 49.7 µM; in the experiment with HT29 colon, 32.4 µM. Further, the TGI was 51.9 µM in the experiment with M14 melanoma; 50.5 µM in the experiment with MOLT-4 leukemia; 31.7 µM with OVCAR-8 ovarian; 6.15 µM and 49 µM in the experiment on UACC-257 melanoma.
